# Entries after “also recorded” stand apart in the source; their conditions may differ. Marks after values point to notes of the source that are not given here.
# What was measured:
# Y410F IPMS [1] = target: T1, Y410F IPMS (Mycobacterium tuberculosis, UniProt P9WQB3, Y410F); type: biochemical; details: for Km: read-out: K1 (Km)
# E218A IPMS [2] = target: T2, E218A IPMS (Mycobacterium tuberculosis, UniProt P9WQB3, E218A); type: biochemical
# H379A IPMS [3] = target: T3, H379A IPMS (Mycobacterium tuberculosis, UniProt P9WQB3, H379A); type: biochemical
# Y169F IPMS = Y169F IPMS (Mycobacterium tuberculosis, UniProt P9WQB3, Y169F); type: biochemical; details: for Km: read-out: K1 (Km)
# E218A IPMS [4] = target: T2, E218A IPMS; type: biochemical; remark: listed apart in the source
# Y169F MtIPMS = Y169F MtIPMS (Mycobacterium tuberculosis, UniProt P9WQB3, Y169F); type: biochemical
# E218A IPMS [5] = target: T2, E218A IPMS; type: binding
# Y410F IPMS [6] = target: T1, Y410F IPMS; type: binding
# H379A IPMS [7] = target: T3, H379A IPMS; type: biochemical; remark: listed apart in the source
# Y410F IPMS [8] = target: T1, Y410F IPMS; type: biochemical
smiles,measurement,setting,value
"CC(=O)SCCNC(=O)CCNC(=O)[C@H](O)C(C)(C)COP(=O)(O)OP(=O)(O)OC[C@H]1O[C@@H](n2cnc3c(N)ncnc32)[C@H](O)[C@@H]1OP(=O)(O)O [Acetyl-CoA, acetyl-coenzyme A]",kcat1 (kcat),Y410F IPMS [1],0.0933 ± 0.0033 s⁻¹
same,Km,Y410F IPMS [1],1.1 ± 0.2 µM
same,K1,E218A IPMS [2],9.5 ± 1.1 µM
same,K2,E218A IPMS [2],697 ± 615 µM
same,kcat1,E218A IPMS [2],0.0583 ± 0.0033 s⁻¹
same,kcat2,E218A IPMS [2],0.0933 ± 0.0467 s⁻¹
same,kcat1 (kcat),H379A IPMS [3],2.55 ± 0.033 s⁻¹
same,Km,H379A IPMS [3]; read-out: K1 (Km),23 ± 1.5 µM
same,kcat1 (kcat),Y169F IPMS,5.67 ± 0.217 s⁻¹
same,Km,Y169F IPMS,40 ± 6 µM
CC(C)C[C@H](N)C(=O)O [L-leucine],"activity retained, vss data",E218A IPMS [4],16%
same,"β, limiting value for vi",E218A IPMS [4],0.61/0.16 ^c
same,inhibition at saturating L-leucine,Y169F MtIPMS,fully inhibited; also recorded: completely inhibited
same,N (stoichiometry for binding),E218A IPMS [5],0.97 ± 0.01
same,ΔH,E218A IPMS [5],1.486 ± 0.031 kcal/mol
same,ΔS,E218A IPMS [5],28.5 cal/mol/K
same,N (stoichiometry for binding),Y410F IPMS [6],0.91 ± 0.01
same,ΔH,Y410F IPMS [6],2.598 ± 0.048 kcal/mol
same,ΔS,Y410F IPMS [6],30.1 cal/mol/K
same,activity retained at saturating L-leucine,H379A IPMS [7],24%
same,β (fractional activity at saturating inhibitor),H379A IPMS [7],0.24
same,sensitivity to L-leucine inhibition,Y410F IPMS [8],insensitive
"CC(C)C(=O)C(=O)O [α-KIV, α-ketoisovalerate]",kcat1 (kcat),Y410F IPMS [1],0.075 ± 0.0033 s⁻¹
same,Km,Y410F IPMS [1],0.5 ± 0.1 µM
same,K1,E218A IPMS [2],1.6 ± 0.2 µM
same,K2,E218A IPMS [2],39 ± 11 µM
same,kcat1,E218A IPMS [2],0.0367 ± 0.0017 s⁻¹
same,kcat2,E218A IPMS [2],0.0217 ± 0.0017 s⁻¹
same,K1,H379A IPMS [3],1.6 ± 1.1 µM
same,K2,H379A IPMS [3],19 ± 6 µM
same,kcat1,H379A IPMS [3],0.7 ± 0.3 s⁻¹
same,kcat2,H379A IPMS [3],1.48 ± 0.283 s⁻¹
same,kcat1 (kcat),Y169F IPMS,4.75 ± 0.267 s⁻¹
same,Km,Y169F IPMS,13.4 ± 2.6 µM

# — article PMC2724842 (Biochemistry, 2009)
